Assays:
[1] = Example 13: Compound 1 IV PK study in dog; assay type: in vivo, male non-naïve Beagle dogs; conditions: male, beagle, plasma, 0.15 mg/kg, read-out: Dog t1/2 (converted)
Procedure: The LC-MS methodology and conditions used to analyse Compound 1 in plasma samples from the intra-venous injection PK studies (Example 13) are described in Tables 5 to 7. A 0.15 mg/mL solution of Compound 1 in 10% DMSO, 10% Solutol HS15 and 80% Saline was prepared as follows: • 1) A stock solution of Compound 1 in DMSO was prepared. • 2) An equal volume of the Compound 1 stock solution and Solutol HS15 were combined and mixed. • 3) The above solution was diluted with normal saline to reach the target concentration. The final formulation was a clear solution. Male non-naïve beagles were used for the dog PK study. The animals had free access to food and water. […] At each time point, approximately 0.5 mL of whole blood was collected into K2EDTA tubes. Blood samples were put on ice and centrifuged at 2000 g for 5 min to obtain plasma samples within 15 minutes. Plasma samples were stored at approximately −70° C. until analyzed by LC-MS.

[2] = Example 11: Compound 1 (Form A) aqueous suspension SC PK study in monkey; assay type: in vivo, male cynomolgus monkeys; conditions: 10 mg/kg, following an initial drug burst
Procedure: An aqueous suspension of Compound 1 free form (Form A) in a 0.9% NaCl+0.5% polysorbate 80 vehicle at a concentration of 3.0 mg/mL was prepared as follows: • 1) Vehicle (0.9% w/w NaCl and 0.5% w/w polysorbate 80) was prepared by dissolving NaCl and polysorbate 80 in water. • 2) Appropriate amount of Compound 1 was weighed and added to the vehicle. • 3) The mixture was stirred for 15 minutes, then vortexed for 1 minute and then sonicated for 10 minutes. • 4) The final dosing formulation was a homogenous white cloudy suspension.
Male non-naïve Cyno Monkeys with ~4-6 kg body weight were used for the monkey PK study. The animals had free access to food and water. The prepared suspension was administered via subcutaneous injection to each animal group (n=3) with a dosing volume of 3.33 mL/kg to achieve a 10 mg/kg dose.
At each time point, approximately 0.5 mL whole blood was collected via the cephalic and saphenous vein into K2EDTA tubes. Blood samples were put on to ice and centrifuged at 2000 g for 5 min to obtain plasma sample within 15 minutes. Plasma samples were stored at approximately −70° C. until analyzed by LC-MS.

[3] = test system: plasma protein; conditions: cited from earlier work
[4] = Example 14: pritelivir SC PK study in dog (solution, micro-suspension, nano-suspension); assay type: in vivo, male non-naïve Beagle dogs; conditions: 10 mg/kg
Procedure: The LC-MS methodology and conditions used to analyse pritelivir in dog plasma samples from the PK study described in Example 14 are provided in Table 2.
A solution of pritelivir in 90% NMP (Sigma) and 10% Solutol HS15 (BASF) at a concentration of 100 mg/mL was prepared as follows: • 1) Around 460 mg of crystalline pritelivir free base sesquihydrate (based on assay) was weighed and added to ~3.9 mL of NMP. The mixture was stirred for 10 mins. • 2) After the pritelivir had dissolved, Solutol HS15 (−0.4 mL) was added to the solution and mixed for another 2 mins. • 3) The final dosing formulation was a clear solution.
An aqueous micro-suspension of crystalline pritelivir free base (sesquihydrate) in a 2 mg/mL polysorbate 80 (Tween 80) and 5 mg/mL Methocel A4M vehicle at a concentration of 100 mg/mL was prepared as follows: • 1) Crystalline pritelivir free base (sesquihydrate) was jet milled [grinding pressure […]] to obtain microparticles (Dv90<10 um). • 2) Around 460 mg of jet milled material (based on assay) were then dispersed in a 2 mg/mL polysorbate 80 (Tween 80) and 5 mg/ml Methocel A4M solution (−4.4 mL) to obtain a 100 mg/ml suspension. • 3) The mixture was stirred for 10 minutes. • 4) The final dosing formulation was a homogenous white cloudy suspension.
An aqueous nano-suspension of crystalline pritelivir free base (sesquihydrate) in a 10 mg/mL NaCMC, 2 mg/mL polysorbate 80 (Tween 80) and 50 mg/mL mannitol vehicle at a concentration of 100 mg/mL was prepared as follows: • 1) 10 mg/mL crystalline pritelivir free base (sesquihydrate) was dispersed into a solution of 1 mg/mL NaCMC+0.2 mg/mL polysorbate 80 (Tween 80) and 5 mg/mL mannitol. • 2) The suspension was subjected to high pressure homogenizer (around 20 cycles at 600 bar followed with 130 cycles at 900 bar) until particle size was around 1 μm. • 3) After particle size reduction, the suspension was subjected to freeze drying to obtain a freeze-dried powder. • 4) The freeze-dried powder was reconstituted with water to obtain a 100 mg/ml suspension. • 5) The suspension was wet milled (10:1 0.1 mm zirconium oxide milling beads: pritelivir) at 700 rpm for 500 minutes to reduce particle size to nanosized particles (Dv90<500 nm). • 6) This nanosuspension was subjected to freeze drying to obtain a freeze-dried powder. • 7) Appropriate amounts of freeze-dried powder (based on assay) were weighed and added to water to obtain a 100 mg/ml suspension. • 8) The mixture was stirred for 10 minutes. • 9) The final dosing formulation was a homogenous white cloudy suspension.
Male non-naïve beagles were used for the dog PK study. […]
At each time point, approximately 0.5 mL of whole blood was collected into K2EDTA tubes. […] Plasma samples were stored at approximately −70° C. until analyzed by LC-MS.

[5] = test system: HSV-2; conditions: Field et al. (2013); read-out: in-vitro EC50 against HSV-2; cited from earlier work
[6] = test system: HSV-1; conditions: Field et al. (2013); read-out: in-vitro EC50 against HSV-1; cited from earlier work

SMILES	half-life [1]	prolonged exposure out to [2]	protein binding [3]	plasma exposure after SC administration ([4]; 0.1 mL/kg, all three formulations (solution, microsuspension, nanosuspension; 100 mg/mL))	plasma concentrations, microsuspension compared with nanosuspension ([4]; early time points (up to 234 hr))	plasma concentration levels of the solution formulation compared with the suspensions ([4]; solution in 90% NMP/10% Solutol HS15, early time points)	adverse reactions at the injection sites ([4]; three formulations)	EC50 [5]	EC50 [6]
Cc1nc(N2CCCN(c3ccc(-c4cc(F)ccc4F)cc3)C2=O)sc1S(N)(=O)=O [Compound 1, 2-(3-(2′,5′-difluoro-[1,1′-biphenyl]-4-yl)-2-oxotetrahydropyrimidin-1(2H)-yl)-4-methylthiazole-5-sulfonamide]	34.9 h	at least 220 days	–	–	–	–	–	–	–
Cc1nc(N(C)C(=O)Cc2ccc(-c3ccccn3)cc2)sc1S(N)(=O)=O [pritelivir, N-methyl-N-(4-methyl-5-sulfamoyl-1,3-thiazol-2-yl)-2-[4-(pyridin-2-yl)phenyl]acetamide]	–	–	97-98%	Prolonged exposure was achieved	higher plasma concentrations of pritelivir were obtained from the microsuspension	highest plasma concentration levels at the early time points	no adverse reactions were observed	29 nM	26 nM

Reference: patent US20260216057A1, “PHARMACEUTICAL COMPOSITIONS FOR HERPES VIRUS” (priority 2022, published 2026)
